From publication PMC6534063, “Synthesis of modified 1,5-imino-D-xylitols as ligands for lysosomal β-glucocerebrosidase” (Monatshefte Fur Chemie, 2019)
Where two headings read alike, the source gives them in different places.

How the values were obtained:
[1] = molecular target: T1, Fabrazyme (commercial recombinant human lysosomal α-galactosidase) (Homo sapiens, UniProt P06280); assay: Ki determination with Fabrazyme; type: biochemical; conditions: 37 °C, citrate/phosphate buffer with Triton X-100 and taurocholic acid pH 5.5, 4-nitrophenyl glycopyranoside substrate; read-out: Ki α-Gal, Fabrazyme
T1 construct: purchased Fabrazyme, a commercial product; received as a gift from Dr Lorne Clarke, University of British Columbia
T1 sequence (P06280 32-429): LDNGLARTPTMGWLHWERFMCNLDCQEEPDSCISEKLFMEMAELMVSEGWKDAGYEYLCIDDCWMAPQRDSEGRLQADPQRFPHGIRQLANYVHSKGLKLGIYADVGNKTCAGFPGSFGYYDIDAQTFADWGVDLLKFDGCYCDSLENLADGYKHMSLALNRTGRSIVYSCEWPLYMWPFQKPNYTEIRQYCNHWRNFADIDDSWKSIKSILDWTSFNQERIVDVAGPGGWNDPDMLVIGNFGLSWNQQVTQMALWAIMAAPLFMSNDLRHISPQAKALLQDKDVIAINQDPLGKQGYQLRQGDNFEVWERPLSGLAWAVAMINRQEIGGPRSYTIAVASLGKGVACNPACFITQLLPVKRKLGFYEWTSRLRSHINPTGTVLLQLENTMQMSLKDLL
Excerpt: (§1) For the biological evaluation of the synthesized DIX derivatives 19, 23, 26, and 28, we have probed a series of standard glycoside hydrolases, including β-glucosidase from Agrobacterium sp. (ABG), β-galactosidase from E. coli, Fabrazyme (commercial recombinant human lysosomal α-galactosidase), α-glucosidase S. cerevisiae, and human β-glucocerebrosidase GCase, to investigate ligand activity as well as selectivity. […] This increase in selectivity might be explained by the fact that compounds 26 and 28 combine the advantages of both features, the ethyl group at position C-1 locking the structure in the ^1C4 conformation as well as the lipophilic substituents at the ring nitrogen. The former has been implied for favorable ligand properties and the fitting into the active site of GCase. The latter interacts with the lipophilic entrance to the active site of GCase mimicking the ceramide residue of the natural substrate glucosyl ceramide. Compounds 26 and 28 will serve as building blocks for further functionalisation as proposed.
(§2) Kinetic studies were performed at 37 °C in an appropriate buffer using a known concentration of enzyme (specific conditions depicted below). Ki determinations were performed using the corresponding 4-nitrophenyl α- or β-D-glycopyranoside as substrate. In a typical assay, the enzyme was incubated with different inhibitor concentrations for up to 5 min before initiating the reaction by the addition of substrate. The initial reaction rate was measured by monitoring the increase in absorbance at 400 nm for up to 10 min. Ki determinations were performed using at least two different substrate concentrations. For each inhibitor, a range of four-to-six inhibitor concentrations bracketing the Ki value ultimately determined was used for each substrate concentration. Dixon plots (1/v vs. [I]) were constructed to validate the use of the competitive inhibition model. The data were then fitted using non-linear regression analysis with Grafit 7.0.

[2] = molecular target: T2, E.coli lac z β-galactosidase (Escherichia coli, UniProt P00722); assay: Ki determination with β-galactosidase from E. coli; type: biochemical; conditions: 37 °C, 50 mM sodium phosphate, 1.0 mM MgCl2 pH 7, 4-nitrophenyl glycopyranoside substrate; read-out: Ki β-Gal, E. coli
T2 construct: purchased Sigma-Aldrich
Excerpt: as §1, §2

[3] = molecular target: S. cerevisiae α-glucosidase; assay: Ki determination with α-glucosidase S. cerevisiae; type: biochemical; conditions: 37 °C, 50 mM sodium phosphate buffer pH 7, PNP α-Glc substrate; read-out: Ki α-Glu, S. cer.
Excerpt: as §1, §2

[4] = molecular target: T3, β-glucosidase/β-galactosidase from Agrobacterium sp. (ABG) (Agrobacterium sp., UniProt P12614); assay: Ki determination with β-glucosidase from Agrobacterium sp. (ABG); type: biochemical; conditions: for Ki: 37 °C, 50 mM sodium phosphate buffer pH 7, 4-nitrophenyl glycopyranoside substrate, read-out: Ki β-Glu, ABG
T3 construct: made in house; host or cells: E. coli
T3 sequence (P12614 1-459): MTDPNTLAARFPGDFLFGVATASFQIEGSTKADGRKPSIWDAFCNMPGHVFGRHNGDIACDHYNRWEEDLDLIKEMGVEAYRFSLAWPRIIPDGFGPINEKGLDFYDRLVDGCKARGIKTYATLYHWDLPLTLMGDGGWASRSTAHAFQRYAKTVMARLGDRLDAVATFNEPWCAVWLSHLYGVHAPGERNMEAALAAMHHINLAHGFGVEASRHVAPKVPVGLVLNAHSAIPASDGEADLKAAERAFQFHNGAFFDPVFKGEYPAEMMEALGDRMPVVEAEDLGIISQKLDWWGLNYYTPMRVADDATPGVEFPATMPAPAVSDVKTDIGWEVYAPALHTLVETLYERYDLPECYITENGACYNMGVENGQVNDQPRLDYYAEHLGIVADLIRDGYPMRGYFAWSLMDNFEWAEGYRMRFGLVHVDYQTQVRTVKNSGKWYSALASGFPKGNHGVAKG
Excerpt: as §1, §2

[5] = molecular target: T4, human β-glucocerebrosidase (GCase) (Homo sapiens, UniProt P04062); assay: Ki determination with human β-glucocerebrosidase (GCase); type: biochemical; conditions: 37 °C, citric acid/phosphate buffer with Triton X-100 and taurocholic acid pH 7.0, 4-nitrophenyl glycopyranoside substrate; read-out: Ki β-Glu, Gaucher (GCase)
T4 construct: gift of Dr. Lorne Clarke, University of British Columbia
T4 sequence (P04062 40-536): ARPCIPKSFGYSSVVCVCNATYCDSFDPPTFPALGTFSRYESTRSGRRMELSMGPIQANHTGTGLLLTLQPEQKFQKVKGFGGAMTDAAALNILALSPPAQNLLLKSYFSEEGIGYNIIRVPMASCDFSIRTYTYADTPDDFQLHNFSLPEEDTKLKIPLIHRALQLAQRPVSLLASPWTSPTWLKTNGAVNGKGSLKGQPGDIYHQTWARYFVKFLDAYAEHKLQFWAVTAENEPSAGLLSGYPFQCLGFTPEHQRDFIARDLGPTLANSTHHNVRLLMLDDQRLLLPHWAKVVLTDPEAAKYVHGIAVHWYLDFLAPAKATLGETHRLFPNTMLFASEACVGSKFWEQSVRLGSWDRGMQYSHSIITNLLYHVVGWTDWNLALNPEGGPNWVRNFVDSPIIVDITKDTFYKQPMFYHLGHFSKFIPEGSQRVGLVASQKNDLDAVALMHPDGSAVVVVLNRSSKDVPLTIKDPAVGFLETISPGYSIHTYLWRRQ
Excerpt: as §1, §2

[6] = molecular target: human lysosomal β-glucocerebrosidase (GCase); conditions: cited from earlier work; for IC50: compounds 10a-10b
[7] = molecular target: β-xylosidase from Thermoanaerobacterium saccharolyticum; conditions: read-out: Ki (Xyl Therm. sac.), cited from earlier work
[8] = C-1 alkyl modified DIX analogues 15
[9] = D-xylo 1-C-iminosugar glycosides 14

T2 sequence (P00722 2-1024 limits assumed): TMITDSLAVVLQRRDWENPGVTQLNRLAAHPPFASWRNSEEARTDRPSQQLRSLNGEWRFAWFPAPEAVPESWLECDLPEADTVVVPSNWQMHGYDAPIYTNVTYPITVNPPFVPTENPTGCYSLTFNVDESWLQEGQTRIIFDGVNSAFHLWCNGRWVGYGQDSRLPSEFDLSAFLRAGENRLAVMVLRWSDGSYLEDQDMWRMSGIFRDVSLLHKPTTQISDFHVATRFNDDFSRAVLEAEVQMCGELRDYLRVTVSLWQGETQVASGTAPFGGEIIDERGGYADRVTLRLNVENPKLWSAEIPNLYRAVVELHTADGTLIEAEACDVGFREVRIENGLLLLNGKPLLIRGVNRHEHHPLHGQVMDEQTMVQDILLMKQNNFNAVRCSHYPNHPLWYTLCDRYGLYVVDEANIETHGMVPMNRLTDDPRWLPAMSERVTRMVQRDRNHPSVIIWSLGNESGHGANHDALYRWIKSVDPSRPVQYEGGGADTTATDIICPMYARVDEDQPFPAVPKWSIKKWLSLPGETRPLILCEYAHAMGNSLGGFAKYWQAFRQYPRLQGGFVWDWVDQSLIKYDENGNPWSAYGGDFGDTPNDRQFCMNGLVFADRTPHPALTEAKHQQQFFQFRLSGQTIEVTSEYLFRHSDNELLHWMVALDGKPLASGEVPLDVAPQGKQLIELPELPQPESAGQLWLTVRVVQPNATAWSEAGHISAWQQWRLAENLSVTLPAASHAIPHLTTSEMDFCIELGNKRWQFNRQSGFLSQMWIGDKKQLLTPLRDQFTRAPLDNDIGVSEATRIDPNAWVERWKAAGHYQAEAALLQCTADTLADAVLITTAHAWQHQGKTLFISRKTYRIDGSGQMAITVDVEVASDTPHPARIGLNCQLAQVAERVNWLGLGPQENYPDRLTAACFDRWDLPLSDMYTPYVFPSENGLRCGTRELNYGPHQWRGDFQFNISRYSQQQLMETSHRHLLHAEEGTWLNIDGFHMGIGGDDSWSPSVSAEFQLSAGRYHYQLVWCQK

CC[C@@H]1[C@H](O)[C@@H](O)[C@H](O)CN1CCCCCC(=O)NCCc1c[nH]cn1 [Compound 28, (1R)-1-C-Ethyl-N-[(imidazo-4-yl)ethylaminocarbonylpentyl]-1,5-dideoxy-1,5-imino-D-xylitol]
Ki [1]: > 1000 µM
Ki [2]: > 1000 µM
Ki [3]: > 1000 µM
inhibition of β-Glu ABG, in words [4]: No detectable inhibition
Ki [4]: > 1000 µM
Ki [5]: 4.1 µM

CC(C)[C@H]1NC[C@@H](O)[C@H](O)[C@H]1O [R = CH(CH3)2]
Ki [6, 8]: 12.4 µM

COC(=O)[C@H](CCCCN1C[C@@H](O)[C@H](O)[C@@H](O)C1)N1C[C@@H](O)[C@H](O)[C@@H](O)C1 [8, R^1 = R^2 = OMe]
Ki ([7]; N-modified DIX derivatives 8): 25 µM

CC[C@H]1NC[C@@H](O)[C@H](O)[C@H]1O [R = CH2CH3]
Ki [6, 8]: 2.3 µM

COC(=O)CCN1C[C@@H](O)[C@H](O)[C@@H](O)C1 [Compound 7b]
Ki ([7]; N-modified DIX derivatives 7): 35 µM

CCCCCCCCC[C@H]1NC[C@@H](O)[C@H](O)[C@H]1O [R = C9H19]
Ki ([6]; 1-C-alkyl imino-D-xylitols 9): 0.0022 µM

N#C[C@H]1NC[C@@H](O)[C@H](O)[C@H]1O [R = CN]
Ki [6, 8]: 34 µM

CC[C@@H]1[C@H](O)[C@@H](O)[C@H](O)CN1CCCCCC(=O)OC [Compound 26, (1R)-1-C-Ethyl-N-(methyloxycarbonylpentyl)-1,5-dideoxy-1,5-imino-D-xylitol]
Ki [1]: > 1000 µM
Ki [2]: > 1000 µM
Ki [3]: > 1000 µM
inhibition of β-Glu ABG, in words [4]: No detectable inhibition
Ki [4]: > 1000 µM
Ki [5]: 57 µM

O[C@@H]1[C@@H](O)[C@@H](CCCCCOCC23CC4CC(CC(C4)C2)C3)NC[C@H]1O [R^1 = C-C, n=2, R^2 =]
Ki [6, 9]: 0.001 µM

N#CCCN1C[C@@H](O)[C@H](O)[C@@H](O)C1 [Compound 7a]
Ki ([7]; N-modified DIX derivatives 7): 24 µM

CCCCCCO[C@H]1CNC[C@@H](O)[C@@H]1O [Compound 10b]
IC50 [6]: 0.009 µM

COC(=O)[C@H](CCCCN1C[C@@H](O)[C@H](O)[C@@H](O)C1)NS(=O)(=O)c1cccc2c(N(C)C)cccc12 [8, R^1 = NHdansyl, R^2 = OMe]
Ki ([7]; N-modified DIX derivatives 8): 10 µM

OCC[C@H]1NC[C@@H](O)[C@H](O)[C@H]1O [R = (CH2)2OH]
Ki [6, 8]: 26.7 µM

COC(=O)[C@H](CCCCN1C[C@@H](O)[C@H](O)[C@@H](O)C1)NC(=O)[C@H](CCCCN1C[C@@H](O)[C@H](O)[C@@H](O)C1)NS(=O)(=O)c1cccc2c(N(C)C)cccc12 [8, R^1 = NHdansyl, R^2 =]
Ki ([7]; N-modified DIX derivatives 8): 21 µM

CCC[C@H]1NC[C@@H](O)[C@H](O)[C@H]1O [R = (CH2)2CH3]
Ki [6, 8]: 1.3 µM

O[C@@H]1[C@@H](O)[C@@H](CC=CCCOCC23CC4CC(CC(C4)C2)C3)NC[C@H]1O [R^1 = C=C, n=2, R^2 =]
Ki [6, 9]: 0.002 µM

CCCCCC[C@H]1NC[C@@H](O)[C@H](O)[C@H]1O [Compound 10a]
IC50 [6]: 0.019 µM

CCOC(=O)CC[C@H]1NC[C@@H](O)[C@H](O)[C@H]1O [Compound 19, (1R)-1-C-(Ethyloxycarbonylethyl)-1,5-dideoxy-1,5-imino-D-xylitol]
Ki [1]: > 1000 µM
Ki [2]: > 1000 µM
Ki [3]: > 1000 µM
Ki [4]: 2.1 µM
Ki [5]: 5.1 µM

CCCCCCCCCCCC[C@H]1NC[C@@H](O)[C@H](O)[C@H]1O [R = C12H25]
Ki ([6]; 1-C-alkyl imino-D-xylitols 9): 0.031 µM

O=C(CC[C@H]1NC[C@@H](O)[C@H](O)[C@H]1O)NCCc1c[nH]cn1 [Compound 23, (1R)-1-C-[(Imidazo-4-yl)ethylaminocarbonylethyl]-1,5-dideoxy-1,5-imino-D-xylitol]
Ki [1]: > 1000 µM
Ki [2]: > 1000 µM
Ki [3]: > 1000 µM
Ki [4]: 1.6 µM
Ki [5]: 1.1 µM
